Data: PubChem BioAssay (NCI)
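Five compound concentrations were applied to cells in 96-well plates for 48 hours; endpoints were derived by simple linear interpolation of the resulting dose-response curve. GI50 = concentration required for 50% inhibition of growth. The concentration for full growth arrest is given as TGI.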

Columns and labels:
Experiment in all cases: NCI tumour cell line growth inhibition, 48 h
[1] = tested on: IGROV1 ovarian
[2] = tested on: BT-549 breast
[3] = tested on: KM12 colon
[4] = tested on: SF-539 CNS
[5] = tested on: HOP-62 NSCLC
[6] = tested on: PC-3 prostate
[7] = tested on: SNB-75 CNS
[8] = tested on: OVCAR-5 ovarian
[9] = tested on: SF-268 CNS
[10] = tested on: OVCAR-4 ovarian
[11] = tested on: A549 NSCLC
[12] = tested on: HS 578T breast
[13] = tested on: HL-60(TB) leukemia
[14] = tested on: CAKI-1 renal
[15] = tested on: OVCAR-8 ovarian
[16] = tested on: SK-OV-3 ovarian
[17] = tested on: SK-MEL-28 melanoma
[18] = tested on: MDA-MB-231 breast
[19] = tested on: COLO 205 colon
[20] = tested on: EKVX NSCLC
[21] = tested on: DU-145 prostate
[22] = tested on: UO-31 renal
[23] = tested on: SF-295 CNS
[24] = tested on: NCI-H460 lung
[25] = tested on: SR leukemia
[26] = tested on: TK-10 renal
[27] = tested on: LOX IMVI melanoma
[28] = tested on: UACC-257 melanoma
[29] = tested on: HOP-92 NSCLC
[30] = tested on: NCI/ADR-RES ovarian
[31] = tested on: CCRF-CEM leukemia
[32] = tested on: UACC-62 melanoma
[33] = tested on: NCI-H23 lung
[34] = tested on: SN12C renal
[35] = tested on: ACHN renal
[36] = tested on: HCC-2998 colon
[37] = tested on: M14 melanoma
[38] = tested on: K-562 leukemia
[39] = tested on: RXF 393 renal
[40] = tested on: HCT-116 colon
[41] = tested on: SNB-19 CNS
[42] = tested on: HT29 colon
[43] = tested on: OVCAR-3 ovarian
[44] = tested on: SK-MEL-2 melanoma
[45] = tested on: SW-620 colon
[46] = tested on: MCF7 breast
[47] = tested on: U251 CNS
[48] = tested on: SK-MEL-5 melanoma
[49] = tested on: NCI-H226 lung
[50] = tested on: 786-0 renal
[51] = tested on: HCT-15 colon
[52] = tested on: MDA-MB-435
[53] = tested on: T-47D breast
[54] = tested on: MOLT-4 leukemia
[55] = tested on: A498 renal

Molecule COc1ccc(C(=O)NCCNc2nccc(-c3c(-c4ccc(F)cc4)nc4sccn34)n2)cc1 has a GI50 [1] of 2.53 µM, a TGI [1] of 15.5 µM and a GI50 [2] of 7.95 µM. For the same molecule, the TGI [2] was 31.2 µM, the GI50 [3] was 2.99 µM and the TGI [3] was 22.4 µM. The GI50 [4] was 16.3 µM, the TGI [4] was greater than 100 µM and the GI50 [5] was 12.8 µM. The TGI [5] was greater than 100 µM, the GI50 [6] was 10.9 µM and the TGI [6] was greater than 100 µM. The GI50 [7] was 2.97 µM, the TGI [7] was 37.2 µM and the GI50 [8] was 39 µM. For the same molecule, the TGI [8] was greater than 100 µM, the GI50 [9] was 2.61 µM and the TGI [9] was 33.5 µM. It also gave a GI50 [10] of 10.5 µM, a TGI [10] of 84 µM and a GI50 [11] of 3.89 µM. The TGI [11] was greater than 100 µM, the GI50 [12] was 6.12 µM and the TGI [12] was 72.3 µM. It also gave a GI50 [13] of 13.6 µM, a TGI [13] of 47.8 µM and a GI50 [14] of 2.27 µM. For the same molecule, the TGI [14] was 24.5 µM, the GI50 [15] was 5.07 µM and the TGI [15] was greater than 100 µM. The GI50 [16] was 13.7 µM, the TGI [16] was greater than 100 µM and the GI50 [17] was 12.8 µM. The TGI [17] was greater than 100 µM, the GI50 [18] was 24.8 µM and the TGI [18] was greater than 100 µM. It also gave a GI50 [19] of 3.01 µM, a TGI [19] of 22.8 µM and a GI50 [20] of 5.03 µM. For the same molecule, the TGI [20] was 73.9 µM, the GI50 [21] was 1.04 µM and the TGI [21] was 18.9 µM. The GI50 [22] was 1.42 µM, the TGI [22] was 16.5 µM and the GI50 [23] was 2.73 µM. For the same molecule, the TGI [23] was 15.1 µM, the GI50 [24] was 3.55 µM and the TGI [24] was greater than 100 µM. For the same molecule, the GI50 [25] was 5.93 µM, the TGI [25] was 49.1 µM and the GI50 [26] was 16.1 µM. The TGI [26] was greater than 100 µM, the GI50 [27] was 4.67 µM and the TGI [27] was greater than 100 µM. It also gave a GI50 [28] of 13.9 µM, a TGI [28] of 68.8 µM and a GI50 [29] of 13.4 µM. It also gave a TGI [29] greater than 100 µM, a GI50 [30] of 7.62 µM and a TGI [30] greater than 100 µM. It also gave a GI50 [31] of 4.75 µM, a TGI [31] greater than 100 µM and a GI50 [32] of 4.03 µM. For the same molecule, the TGI [32] was 28.4 µM, the GI50 [33] was 8.95 µM and the TGI [33] was greater than 100 µM. It also gave a GI50 [34] of 7.8 µM, a TGI [34] greater than 100 µM and a GI50 [35] of 2.67 µM. For the same molecule, the TGI [35] was greater than 100 µM, the GI50 [36] was 9.72 µM and the TGI [36] was greater than 100 µM. It also gave a GI50 [37] of 6.45 µM, a TGI [37] of 30.9 µM and a GI50 [38] of 4.81 µM. The TGI [38] was greater than 100 µM, the GI50 [39] was 4.05 µM and the TGI [39] was 39.4 µM. It also gave a GI50 [40] of 3.95 µM, a TGI [40] of 19.8 µM and a GI50 [41] of 10.3 µM. The TGI [41] was greater than 100 µM, the GI50 [42] was 2.5 µM and the TGI [42] was greater than 100 µM. The GI50 [43] was 1.24 µM, the TGI [43] was 19.9 µM and the GI50 [44] was 6.23 µM. For the same molecule, the TGI [44] was 30.4 µM, the GI50 [45] was 7.22 µM and the TGI [45] was greater than 100 µM. It also gave a GI50 [46] of 2 µM, a TGI [46] of 36.2 µM and a GI50 [47] of 4.47 µM. It also gave a TGI [47] greater than 100 µM, a GI50 [48] of 3.01 µM and a TGI [48] of 15.7 µM. For the same molecule, the GI50 [49] was 6 µM, the TGI [49] was 69.1 µM and the GI50 [50] was 8.04 µM. It also gave a TGI [50] greater than 100 µM, a GI50 [51] of 4.09 µM and a TGI [51] greater than 100 µM. For the same molecule, the GI50 [52] was 3.1 µM, the TGI [52] was 22.7 µM and the GI50 [53] was 5.78 µM. The TGI [53] was 34 µM, the GI50 [54] was 6.97 µM and the TGI [54] was 57.8 µM. The GI50 [55] was 2.07 µM and the TGI [55] was 55 µM.
